These results are taken from PMC11903733 (Frontiers in Pharmacology, 2025).

The test system of assay [1] is MV-4-11 xenograft. The assay can be described thus: MV-4-11 xenograft model, anti-tumor activity. The conditions noted are these: 10 mg/kg intraperitoneal daily, 15 days, versus vehicle group. The assay is classed as in vivo, BALB/c nude mice. From the text: Given the potent inhibitory effect of LTM-1 on MV-4-11 cell proliferation in vitro, a previously reported xenograft animal model was established to measure the anti-tumor growth and development effects of LTM-1 ([Zhou et al., 2022]). The animal experimental design of this study was reviewed and confirmed by the Ethics Committee of China Pharmaceutical University. The experimental procedures complied with the ARRIVE guidelines (https://arriveguidelines.org/). Female BALB/c nude mice aged 4–6 weeks were purchased from Changzhou Cave Animal Co., Ltd. (Changzhou, China). Mice were housed in a specific pathogen-free (SPF) environment, where the temperature was precisely regulated to 25°C ± 2°C, the relative humidity was kept at 50% ± 5%, and a strict 12-h light-dark cycle was maintained. A 200 μL suspension of MV-4-11 cells (1 × 10^6 cells) was injected subcutaneously into the mice. […] The mice were administered drugs via intraperitoneal injection daily, with a total treatment period of 15 days. Mouse weight and tumor volume were measured every 3 days. The tumor volume was calculated using the formula (c × c × d)/2 (where c represents the smallest diameter, and d represents the largest diameter). […] In addition, the liver and kidney index levels were measured using an automatic biochemical analyzer to evaluate the toxic effects of LTM-1 on mice.

For assay [2], the system named is MOLT-4, MOLM-16, HAL-01, and HL-60. The assay can be described thus: MTS cell proliferation assay, other AML cell lines together. It is filed as cell-based. The conditions noted are these: range over MOLT-4, MOLM-16, HAL-01, HL-60; read-out: IC50 across other AML cell lines. On the procedure:
The myeloid leukemia cell lines MV-4-11, MOLT-4, MOLM-16, HL-60, and the human B lymphocyte cell line […] were purchased from the American Type Culture Collection (ATCC, Manassas, VA, United States). The myeloid leukemia cell line HAL-01 was obtained from the Deutsche Sammlung von Mikroorganismen und Zellkulturen GmbH (DSMZ, Braunschweig, Germany). All cells were cultured in IMDM or RPMI -1640 medium supplemented with 10% FBS, 100 U/mL penicillin, and 100 μg/mL streptomycin. The cells were maintained in a humidified incubator with an atmosphere of 5% CO2 at 37°C.
The in vitro anti-proliferative activity of the compounds was determined using the CellTiter 96® AQueous NonRadioactive Cell Proliferation Assay Kit (Promega, Madison, United States) as previously described ([Ji et al., 2017]). In brief, 5–10 × 10^3 cells and 180 μL of medium were first seeded into each well of a 96-well plate. […] Finally, the optical density (OD) was then recorded at 490 nm and 690 nm using a microplate reader from Molecular Devices. […] The IC50 values of the compounds inhibiting cell proliferation were calculated using GraphPad Prism 10 (GraphPad Software Inc., San Diego, CA).
Background: Formazan colour is commonly taken as a measure of viable cells.

With `O=S(=O)(c1ccc(C(O)CO)c(C(F)(F)F)c1)N1CCc2cc(C3CC3NCC3CCNCC3)ccc21` (centres unmarked) [LTM-1], the “tumor growth (tumor volume)” value in assay [1] is given as “significantly reduced”. Also, the half-inhibitory concentration (IC50) in assay [2] fell in the range of 190 to 390 nM.

Usually IC50 stands for the point on the concentration scale where inhibition reaches its midpoint.
